Like-named read-outs stand apart in the source and are kept apart here. Bridge positions count the residues as written; N and C are the ends. Ends that are not written are not given here. iodoacetamide‑alkyl = not defined here
Assays:
[1] = test system: binding of CTLA-4Ig to B7 on Cess B cells; experiment: CTLA-4Ig/B7 binding assay on Cess B cells by FACS; set-up: key to Binding Assay (effect on CTLA-4Ig binding to Cess B cells): −: no change in binding; +: a minor change of <10% in binding; ++: a change of >20% in binding; conditions: for Binding Assay (effect on CTLA-4Ig binding to Cess B cells): FACS, assays of 3/24, 3/25, 4/5, 4/25, one symbol per assay; for effect on CTLA-4Ig binding, retest in the Cess B binding assay: retest of positives from primary screening
Description: +++ was assigned if the peptide tested gave >50% change in cpm in a dose dependent fashion. In addition to the MLR, these 34 peptides were also evaluated in a CTLA-4Ig/B7 binding assay in which the ability of these peptides to affect the binding of CTLA-4Ig to B7 on Cess B cells was examined by FACS analysis.
As with the MLR, a + or − was assigned to each peptide depending on its ability to effect CTLA-4Ig binding to Cess B cells; where − represents no change in binding, + represents a minor change of <10% in binding, and a ++ represents a change of >20% in binding.

[2] = test system: lymphocyte proliferation in the human MLR; assay type: cell-based; conditions: for Human MLR (ability to inhibit lymphocyte proliferation, cpm): peptide 12.5 to 100 μM, assays of 1/24, 1/31, 3/6, 4/17, 5/2, one symbol per assay; for effect on the MLR, retest: two MLRs, peptide by itself, concentrations up to 200 μM; for inhibition of the MLR, in words: control and linear peptides compared with AT 199; for effect on the human MLR in combination with CTLA-4Ig: CTLA-4Ig spiked in at 0.5 μg/ml (FIG. 8)
Description: Whole blood from donors was obtained from Interstate Blood Bank, Memphis, Tenn. Blood specimens were handled in a biosafety level 2 containment facility as recommended for potentially infectious blood specimens in the CDC/NIH manual Biosafety in Microbiological and Biomedical Laboratories; 3rd edition, 1993, page 10. Peripheral blood mononuclear cells (PBMC) were separated from red blood cells and granulocytes by ficoll-hypaque purification. Whole peripheral blood was diluted 1:2 in PBS and 30 ml was overlayed onto 15 ml of ficoll-hypaque in 50 ml polypropylene tubes. The tubes were spun at 400×g for 30 min at 25° C. Following centrifugation, the interface between the upper plasma layer and the lower ficoll layer was collected, cells washed in RPMI-1640 2×, and viable counts determined using trypan blue. Cells to be used as responders in the assay were stored on ice until mitomycin C treatment of stimulator cells was completed.
PBMC, isolated as described above, to be used as stimulators in the assay were adjusted to 2-4×10^6 cells/ml in complete medium (RPMI 1640 containing 10% heat-inactivated human AB serum, 2 mM glutamine, 50 μM 2-mercaptoethanol and 100 U/ml penicillin-100 μg/ml streptomycin), and treated with mitomycin C (25 μg/ml) for 30 min in a 37° C. water bath. Following treatment, cells were washed with S volumes of complete medium 3×, and viable counts determine using trypan blue. To set up autologous stimulation controls some responder cells were also treated with mitomycin C as mentioned above.
Purified CTLA-4Ig fusion protein was produced, as described in Steurer et al. 1995, from a NS-1 cell line kindly donated by Dr. T. Strom (Beth Israel Hospital, Boston, Mass.) as a 1 mg/ml solution in sterile PBS. The protein was stored frozen at −80° C. Upon thawing, the aliquot was stored at 4° C. Purified peptides were lyophilized according to known procedures. Peptides were reconstituted in sterile PBS, pH 7.4 at 2 mM concentration, aliquoted in microfuge cubes and stored frozen at −20° C. For the assay, an aliquot of the peptide was thawed and diluted to 200 μM in complete medium.
For the one-way allogeneic mixed lymphocyte response (MLR) assay, responder cells were plated at 10^6 cells/well, and stimulator cells at 5×10^4 cells/well in 96-well round bottom plates. Cells were incubated with serial dilutions of the anti-CD4 Ab Leu 3A (1 μg/ml-0.06 μg/ml) in triplicate, or an isotype-matched control Ab. Cyclosporin A at 1 μg/ml was used as an additional control.
CTLA-4 Ig was serially diluted an.4 tested from 10 μg/ml to 0.15 μg/ml. Peptides were tested either directly or in the presence of a constant spiked-in dose of CTLA-4 Ig at 0.5 μg/ml. The plates were incubated at 37° C. in a humidified 5% CO2 atmosphere for 7 days.
Proliferation of the cells was determined by pulsing the wells with ^3H-Tdr (1 μCi/well) for the last 18 h of the assay. Plates were harvested using a Tomtec -late harvester and the counts incorporated determined using a Wallac microbetaplate plus reader.
A total of 34 peptides were tested for inhibition of lymphocyte proliferation in the human MLR. Each peptide was tested in a MLR at doses ranging from 12.5 to 100 μM. The activity of each peptide was identified by assigning a + and − tone peptide depending on its ability to inhibit lymphocyte proliferation in the MLR (cpms).

Substance | Binding Assay (effect on CTLA-4Ig binding to Cess B cells) [1] | Human MLR (ability to inhibit lymphocyte proliferation, cpm) [2] | other results
CSKTGFNC (disulfide 1-8 (inferred)) [AT 115.1] | − | − (all concentrations of peptide tested gave <15% change in cpm) | 
CKIEVMYPPPYLC (disulfide 1-13 (inferred)) [AT 114.1] | Toxic | Toxic | 
CKYSYNLFSREFC (disulfide 1-13 (inferred)) [AT 107.1] |  | −, +, +, − | 
CMYPPPYYRGGKC (disulfide 1-13 (inferred)) [AT 129.1] | ++ (a change of >20% in binding) | −, − | 
KILVKQS [AT 119.1] | − | −, +/− | 
CMYPPPYYKAKC (disulfide 1-12 (inferred)) [AT 130.1] | −, − | −, − | 
CRQADSQVTEC (disulfide 1-11 (inferred)) [AT 128.1] | + (a minor change of <10% in binding) | ++, − | effect on CTLA-4Ig binding, retest in the Cess B binding assay [1]: no effect; effect on the MLR, retest [2]: none of these peptide by themselves had any consistent effect
CEYASPGKATEVC (disulfide 1-13 (inferred)) [AT 123.1] | +/−, − | −, − | 
HVAQPA [AT 136.1] | +++, + | ++, +, − | effect on CTLA-4Ig binding, retest in the Cess B binding assay [1]: no effect; effect on the MLR, retest [2]: none of these peptide by themselves had any consistent effect
KYLVKQS-OH [AT 122.1] | +, − | −, − | 
LDSAVEV-OH [AT 117.1] | + (a minor change of <10% in binding) | − (all concentrations of peptide tested gave <15% change in cpm) | 
KILVKQS-OH [AT 121.1] |  | +/−, − | 
CKIEVMYPPPYC (disulfide 1-12 (inferred)) [AT 113.1] | −, − | − (all concentrations of peptide tested gave <15% change in cpm) | 
CSPNQC (disulfide 1-6 (inferred)) [AT 135.1] | ++ (a change of >20% in binding) | +/−, − | effect on CTLA-4Ig binding, retest in the Cess B binding assay [1]: no effect; effect on the MLR, retest [2]: none of these peptide by themselves had any consistent effect
RKCLAYPPPYYCHH (not fully specified (bridges); cysteine pairing not given here) [AT 200.1] | −, −, − | −, −, − | inhibition of the MLR, in words [2]: did not inhibit any of the MLRs as much as AT 199
CMYPPYLRGGKC (disulfide 1-12 (inferred)) [AT 109.1] | −, + |  | 
CKGLDSAVEC (disulfide 1-10 (inferred)) [AT 108.1] | − | −, −, − | 

Substance | Binding Assay (effect on CTLA-4Ig binding to Cess B cells) [1] | Human MLR (ability to inhibit lymphocyte proliferation, cpm) [2] | other results
KYLVKQS [AT 120.1] | − | −, +/− | 
HVEQPA [AT 137.1] | +/−, − | −, + | 
ECASPGKATEVC (not fully specified (bridges); cysteine pairing not given here) [AT 118.1] |  | − (all concentrations of peptide tested gave <15% change in cpm) | 
CSSGNQVC (disulfide 1-8 (inferred)) [AT 132.1] | +, − | +, −, − | 
CMYPPPYGKC (disulfide 1-10 (inferred)) [AT 110.1] | −, − | − (all concentrations of peptide tested gave <15% change in cpm) | 
HVEQPA-OH [AT 125.1] | −, + | −, − | 
ADSQVTEV-OH [AT 124.1] | +, − | −, − | 
CDDSIC (disulfide 1-6 (inferred)) [AT 131.1] |  | +, −, − | 
CMYPPQYGKC (disulfide 1-10 (inferred)) [AT 111.1] | − | −, +/− | 
NECTFCDD (not fully specified (bridges); cysteine pairing not given here) [AT 197.1] | −, −, − | −, −, − | 
AT 199.2B: AT 199 treated with iodoacetamide, purely linear analog with alkylated cysteines (RKC(iodoacetamide‑alkyl)LMYPPPYYC(iodoacetamide‑alkyl)HH; not fully specified (C-terminus); reading uncertain) |  |  | effect on the human MLR in combination with CTLA-4Ig [2]: no effect; inhibition of the MLR, in words [2]: no effect; inhibition of the human MLR ([2]; the MLR's, highest concentration (100 μM) tested): < 10%
CSSPNQVC (disulfide 1-8 (inferred)) [AT 133.1] | ++, − | ++, + | effect on CTLA-4Ig binding, retest in the Cess B binding assay [1]: no effect; effect on the MLR, retest [2]: none of these peptide by themselves had any consistent effect
AT 199.2A: resynthesis of AT 199.1, refolding prolonged to 5 days at pH 10.0; fully cyclized version (RKCLMYPPPYYCHH; disulfide 3-12 (inferred); not fully specified (C-terminus)) |  |  | inhibition of the human MLR ([2]; 100 μM, another MLR): 25%; inhibition of the human MLR ([2]; 100 μM, one MLR): 50%; effect on the human MLR in combination with CTLA-4Ig [2]: additive
LDSAVEV [AT 116.1] | − | − (all concentrations of peptide tested gave <15% change in cpm) | 
ADSQVTEV [AT 127.1] | +/−, +/− | −, − | 
KCSYNLFSREFC (not fully specified (bridges); cysteine pairing not given here) [AT 106.1] | ++, ++ | ++, +, +, +/− | effect on CTLA-4Ig binding, retest in the Cess B binding assay [1]: no effect; effect on the MLR, retest [2]: none of these peptide by themselves had any consistent effect

Source: patent US6337316B1, “Pharmaceutical compositions thereof, and methods of using same” (Applied Research Systems ARS Holding N.V., priority 1997, dated 2002)
